In patent US10662138B2, “Herbicidal propynyl-phenyl compounds” (Syngenta Participations AG, priority 2014, dated 2020):

How the values were obtained:
Type in all cases: in vivo
Amaranthus retroflexus = experiment: Glasshouse assay for herbicidal activity, post-emergence, AMARE; details: Amaranthus retroflexus, 312 h, 250 g/ha, visual 13 days after application, 100%=total damage, read-out: Percentage phytotoxicity AMARE
Procedure: (§1) Seeds of a variety of test plant species were sown in standard soil ** in pots. After cultivation for one day (pre-emergence) or after 8 days cultivation (post-emergence) under controlled conditions in a glasshouse (at 24/16° C., day/night; 14 hours light; 65% humidity), the plants were sprayed with an aqueous spray solution derived from the formulation of the technical active ingredient (the test herbicide) in acetone/water (50:50) solution containing 0.5% Tween 20 (polyoxyethylene sorbitan monolaurate, CAS Reg. No. 9005-64-5). The test plants were then grown on under controlled conditions in a glasshouse (at 24/16° C., day/night; 14 hours light; 65% humidity) and watered twice daily. 13 Days after application of the test herbicide, for pre- and post-emergence, the test was evaluated visually for percentage phytotoxicity to each plant (where 100%=total damage to plant; 0%=no damage to plant). Generally, each test herbicide is only tested on 1 plant per plant species for each application rate tested and for each application timing. The “standard soil” in Biological Example 1 is usually a “sand” or “sandy loam” type of soil. Biological Example 1—Post-Emergence Application—Herbicidal Activity Results (Percentage Phytotoxicity) Dicotyledonous weeds: ABUTH=Abutilon theophrasti; AMARE=Amaranthus retroflexus. Grassy monocotyledonous weeds: SETFA=Setaria faberi; ALOMY=Alopecurus myosuroides; ECHCG=Echinochloa crus-galli; ZEAMX=Zea mays (corn, maize, e.g. volunteer corn).

[1] = test system: Zea mays (corn, maize, e.g. volunteer corn); experiment: Glasshouse assay for herbicidal activity, post-emergence, ZEAMX; details: Zea mays, 312 h, 250 g/ha, visual 13 days after application, 100%=total damage, read-out: Percentage phytotoxicity ZEAMX
Procedure: as §1

Setaria faberi = experiment: Glasshouse assay for herbicidal activity, post-emergence, SETFA; details: Setaria faberi, 312 h, 250 g/ha, visual 13 days after application, 100%=total damage, read-out: Percentage phytotoxicity SETFA
Procedure: as §1

Alopecurus myosuroides = experiment: Glasshouse assay for herbicidal activity, post-emergence, ALOMY; details: Alopecurus myosuroides, 312 h, 250 g/ha, visual 13 days after application, 100%=total damage, read-out: Percentage phytotoxicity ALOMY
Procedure: as §1

Echinochloa crus-galli = experiment: Glasshouse assay for herbicidal activity, post-emergence, ECHCG; details: Echinochloa crus-galli, 312 h, 250 g/ha, visual 13 days after application, 100%=total damage, read-out: Percentage phytotoxicity ECHCG
Procedure: as §1

Abutilon theophrasti = experiment: Glasshouse assay for herbicidal activity, post-emergence, ABUTH; details: Abutilon theophrasti, 312 h, 250 g/ha, visual 13 days after application, 100%=total damage, read-out: Percentage phytotoxicity ABUTH
Procedure: as §1

CC#Cc1ccc(C2=C(OC(C)=O)C3CCC(C3)C2=O)c(OC)c1 (stereo not drawn) [Compound P1, [3-(2-methoxy-4-prop-1-ynyl-phenyl)-4-oxo-2-bicyclo[3.2.1]oct-2-enyl] acetate]
pest or weed control at 250 g/ha (Amaranthus retroflexus): 20% | pest or weed control at 250 g/ha [1]: 100% | pest or weed control at 250 g/ha (Setaria faberi): 90% | pest or weed control at 250 g/ha (Alopecurus myosuroides): 100% | pest or weed control at 250 g/ha (Echinochloa crus-galli): 100% | pest or weed control at 250 g/ha (Abutilon theophrasti): 10%

C#CCOC1=C(c2ccc(C#CC)cc2OC)C(=O)C2CCC1C2 (stereo not drawn) [Compound P2, 3-(2-methoxy-4-prop-1-ynyl-phenyl)-2-prop-2-ynoxy-bicyclo[3.2.1]oct-2-en-4-one]
pest or weed control at 250 g/ha (Amaranthus retroflexus): 0% | pest or weed control at 250 g/ha [1]: 100% | pest or weed control at 250 g/ha (Setaria faberi): 80% | pest or weed control at 250 g/ha (Alopecurus myosuroides): 70% | pest or weed control at 250 g/ha (Echinochloa crus-galli): 90% | pest or weed control at 250 g/ha (Abutilon theophrasti): 0%

C=CCOC1=C(c2ccc(C#CC)cc2OC)C(=O)C2CCC1C2 (stereo not drawn) [Compound P3]
pest or weed control at 250 g/ha (Amaranthus retroflexus): 10% | pest or weed control at 250 g/ha [1]: 100% | pest or weed control at 250 g/ha (Setaria faberi): 90% | pest or weed control at 250 g/ha (Alopecurus myosuroides): 70% | pest or weed control at 250 g/ha (Echinochloa crus-galli): 100% | pest or weed control at 250 g/ha (Abutilon theophrasti): 0%

CC#Cc1ccc(C2=C(OCOC)C3CCC(C3)C2=O)c(OC)c1 (stereo not drawn) [Compound P4]
pest or weed control at 250 g/ha (Amaranthus retroflexus): 0% | pest or weed control at 250 g/ha [1]: 100% | pest or weed control at 250 g/ha (Setaria faberi): 100% | pest or weed control at 250 g/ha (Alopecurus myosuroides): 100% | pest or weed control at 250 g/ha (Echinochloa crus-galli): 100% | pest or weed control at 250 g/ha (Abutilon theophrasti): 10%

CC#Cc1ccc(C2=C(OC(=O)c3ccc(F)cc3)C3CCC(C3)C2=O)c(OC)c1 (stereo not drawn) [Compound P5]
pest or weed control at 250 g/ha (Amaranthus retroflexus): 30% | pest or weed control at 250 g/ha [1]: 100% | pest or weed control at 250 g/ha (Setaria faberi): 90% | pest or weed control at 250 g/ha (Alopecurus myosuroides): 90% | pest or weed control at 250 g/ha (Echinochloa crus-galli): 100% | pest or weed control at 250 g/ha (Abutilon theophrasti): 50%

CC#Cc1ccc(C2=C(OC(=O)CC)C3CCC(C3)C2=O)c(OC)c1 (stereo not drawn) [Compound P6]
pest or weed control at 250 g/ha (Amaranthus retroflexus): 40% | pest or weed control at 250 g/ha [1]: 100% | pest or weed control at 250 g/ha (Setaria faberi): 90% | pest or weed control at 250 g/ha (Alopecurus myosuroides): 90% | pest or weed control at 250 g/ha (Echinochloa crus-galli): 100% | pest or weed control at 250 g/ha (Abutilon theophrasti): 60%

CC#Cc1ccc(C2=C(OC(=O)OC)C3CCC(C3)C2=O)c(OC)c1 (stereo not drawn) [Compound P7]
pest or weed control at 250 g/ha (Amaranthus retroflexus): 30% | pest or weed control at 250 g/ha [1]: 100% | pest or weed control at 250 g/ha (Setaria faberi): 90% | pest or weed control at 250 g/ha (Alopecurus myosuroides): 90% | pest or weed control at 250 g/ha (Echinochloa crus-galli): 100% | pest or weed control at 250 g/ha (Abutilon theophrasti): 40%

CC#Cc1ccc(C2=C(OC(=O)OCC)C3CCC(C3)C2=O)c(OC)c1 (stereo not drawn) [Compound P8]
pest or weed control at 250 g/ha (Amaranthus retroflexus): 20% | pest or weed control at 250 g/ha [1]: 100% | pest or weed control at 250 g/ha (Setaria faberi): 90% | pest or weed control at 250 g/ha (Alopecurus myosuroides): 90% | pest or weed control at 250 g/ha (Echinochloa crus-galli): 100% | pest or weed control at 250 g/ha (Abutilon theophrasti): 60%

CC#Cc1ccc(C2=C(OC(=O)C(C)C)C3CCC(C3)C2=O)c(OC)c1 (stereo not drawn) [Compound P10]
pest or weed control at 250 g/ha (Amaranthus retroflexus): 40% | pest or weed control at 250 g/ha [1]: 100% | pest or weed control at 250 g/ha (Setaria faberi): 90% | pest or weed control at 250 g/ha (Alopecurus myosuroides): 90% | pest or weed control at 250 g/ha (Echinochloa crus-galli): 100% | pest or weed control at 250 g/ha (Abutilon theophrasti): 70%

CC#Cc1ccc(C2=C(OC(=O)C(C)(C)C)C3CCC(C3)C2=O)c(OC)c1 (stereo not drawn) [Compound P11]
pest or weed control at 250 g/ha (Amaranthus retroflexus): 20% | pest or weed control at 250 g/ha [1]: 100% | pest or weed control at 250 g/ha (Setaria faberi): 100% | pest or weed control at 250 g/ha (Alopecurus myosuroides): 90% | pest or weed control at 250 g/ha (Echinochloa crus-galli): 100% | pest or weed control at 250 g/ha (Abutilon theophrasti): 70%

CC#Cc1ccc(C2=C(OC(=O)c3ccccc3)C3CCC(C3)C2=O)c(OC)c1 (stereo not drawn) [Compound P12]
pest or weed control at 250 g/ha (Amaranthus retroflexus): 20% | pest or weed control at 250 g/ha [1]: 100% | pest or weed control at 250 g/ha (Setaria faberi): 90% | pest or weed control at 250 g/ha (Alopecurus myosuroides): 100% | pest or weed control at 250 g/ha (Echinochloa crus-galli): 100% | pest or weed control at 250 g/ha (Abutilon theophrasti): 70%

CC#Cc1ccc(C2=C(OC(=O)Sc3ccccc3)C3CCC(C3)C2=O)c(OC)c1 (stereo not drawn) [Compound P13]
pest or weed control at 250 g/ha (Amaranthus retroflexus): 60% | pest or weed control at 250 g/ha [1]: 100% | pest or weed control at 250 g/ha (Setaria faberi): 100% | pest or weed control at 250 g/ha (Alopecurus myosuroides): 90% | pest or weed control at 250 g/ha (Echinochloa crus-galli): 100% | pest or weed control at 250 g/ha (Abutilon theophrasti): 40%
